Columns and labels:
[1] = target: T1, Y5 receptor (Homo sapiens, UniProt Q15761); experiment: In vitro affinity for NPY receptors, competition binding with [125I]-PYY on cell line expressing the Y5 sub-type; settings: radioligand [125I]-PYY 15 to 65 pM
T1 construct: host or cells: unnamed cell line expressing the Y5 sub-type
T1 sequence (Q15761 1-445): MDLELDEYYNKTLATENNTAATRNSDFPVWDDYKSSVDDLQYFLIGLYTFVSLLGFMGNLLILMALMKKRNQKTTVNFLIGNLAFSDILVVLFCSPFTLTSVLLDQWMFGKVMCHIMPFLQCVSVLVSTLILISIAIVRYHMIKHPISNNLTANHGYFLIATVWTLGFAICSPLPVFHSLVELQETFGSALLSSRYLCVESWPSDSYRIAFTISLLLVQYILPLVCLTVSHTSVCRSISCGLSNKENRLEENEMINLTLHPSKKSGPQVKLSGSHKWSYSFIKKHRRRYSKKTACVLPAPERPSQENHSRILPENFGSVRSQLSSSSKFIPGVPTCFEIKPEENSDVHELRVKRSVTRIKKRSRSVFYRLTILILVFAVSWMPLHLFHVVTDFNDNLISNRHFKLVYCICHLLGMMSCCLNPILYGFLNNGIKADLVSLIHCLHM
Procedure: The capacity of the compounds of the invention to bind to NPY receptors was measured on various cell lines, each expressing one of the receptor sub-types studied. Competition binding experiments were carried out using the peptide [^125 I]-PYY as radioligand at concentrations ranging from 15 to 65 pM. The non-specific fraction is measured in the presence of a concentration of 1 μM NPY. The cells are incubated for a period ranging from 1 to 2 hours depending upon the lines, and the radioactivity is collected after filtration over a GF/C filter treated with 0.1% PEI, before being measured.
The results are expressed as IC50.

[2] = system: obese ob/ob mouse; experiment: Effect on food intake and weight development in the obese ob/ob mouse; assay type: in vivo, mouse (female ob/ob C57B1/6J); settings: 5 mg/kg IP, twice daily
Procedure: The compounds of the invention were administered in vivo to the obese ob/ob mouse in order to evaluate their influence on food intake and weight development. The animals used are 13- to 18-week-old female ob/ob C57B1/6J mice. They are divided into groups each comprising 4 animals per cage, the cages being fitted with a grating floor, and the mice having free access to food.
Before the experiments, the animals are conditioned for a period ranging from 2 to 3 weeks until their food consumption has stabilised. The experiments may be summarised as follows:
D -14 to D -7: conditioning
D -7 to D -3: measurement of the basal food intake
D0 to D +3: animals treated twice daily, the control groups being given the carrier D0 to D +4: daily measurement of food intake and body weight
The test products are dissolved, immediately before use, in water, 0.9% sodium chloride, propylene glycol or dimethyl sulphoxide, depending upon their solubility, and are administered intraperitoneally (IP), in a volume of 2.5 ml/kg.
The parameters measured are the weight of the feed troughs containing the food and the body weight.
The results are expressed as: percentage variation in food intake under treatment compared with the basal food intake; percentage variation in body weight between the first and last day of treatment.

## O=C(NNC(=O)C1CCC(CNS(=O)(=O)c2ccc3ccccc3c2)CC1)c1ccccc1 (stereo not drawn) [Example 44, N2-({4-[(2-Benzoylhydrazino)carbonyl]cyclohexyl}methyl)-2-naphthalenesulphonamide]
[1]
  IC50: 14.5 nM
[2]; D1, control -25.3
  Food intake % variation (D1), Treated (compared with the basal food intake): -75.2%
[2]; D4/D0
  Body weight % variation (D4/D0): -6.0%

Reference: US6271247A, “Hydrazide compounds” (Adir et Compagnie, priority 1998, dated 2001)
